{"source": "patent US6887661B1", "about": "“Recombinant bHLH-PAS/JHR polypeptide and its use to screen potential insecticides” (American Cyanamid Company, priority 1997, dated 2005)", "key": {"[1]": {"test_system": "Met mutant Drosophila flies", "conditions": "cited from earlier work; for resistance to topical application: Met gene mutation"}, "[2]": {"test_system": "JH cytosolic binding protein", "conditions": "cited from earlier work"}, "GAL4-AhR construct": {"test_system": "GAL4-AhR construct", "conditions": "yeast cells; construct constitutively active without ligand; cited from earlier work"}, "[3]": {"test_system": "DNA BD of the glucocorticoid receptor fused to the AhR", "conditions": "CHO mammalian cells; cited from earlier work"}, "Drosophila": {"test_system": "Drosophila", "conditions": "JH analog insecticide; cited from earlier work"}, "[4]": {"test_system": "Met^3 flies transformed with genomic fragments", "assay": "Methoprene resistance test of progeny of Met^3 transformants (rescue of Met phenotype)", "format": "in vivo, Drosophila", "conditions": "three diagnostic amounts of methoprene", "experimental": "P-element mediated germline transformation was carried out with DNA fragments isolated from phage clones derived from a wild-type genomic library. Genomic fragments were isolated following restriction enzyme digestions of phage obtained from the iso-i strain genomic library. (Tamkun et al. Proc. Natl. Acad. Sci. USA 81:5140 (1984)). Fragments were either subcloned into Bluescript (Stratagene Co., Ca.), then excised with an EcoRI-NotI double digest and subcloned into the pCaSpeR 4 transformation vector (Thummel et al. Drosophila Inform. Serv. 71:150 (1992)), or were subcloned directly into the pCaSpeR 4 vector. Purified plasmids together with pp25.1wc transformation “helper” DNA in a ratio of 2-3:1 were injected into dechorionated ywMet^3 embryos as described. (A. Spradling in Drosophila—A Practical Approach (D. B. Roberts, Ed. IRL, Oxford, 1986, page 175). Go progeny were individually crossed with y w Met^3, and transformants recognized by restoration of eye color ranging from light orange to red. For each DNA fragment, 3-5 transformants from separate Go females were recovered and their progeny tested for methoprene resistance.\nProgeny of transformants were tested on three diagnostic amounts of methoprene as described in Wilson, Arch. Insect Biochem. Physiol. 32:641 (1996)). […]"}}}
{"smiles": "COC(=O)/C=C(\\C)CC/C=C(\\C)CC[C@H]1OC1(C)C", "note": "[JH III, [R-(E,E)]-9-(3,3-dimethyloxiranyl)-3,7-dimethyl-2,6-nonadienoic acid methyl ester]", "values": [{"measurement": "resistance to topical application", "setting": "[1]", "value": "resistance"}, {"measurement": "binding to cytosolic juvenile hormone-binding protein", "setting": "[2]; Drosophila melanogaster cytosolic protein", "value": "saturable, high-affinity binding"}, {"measurement": "lower binding affinity of JH cytosolic binding protein from Met flies than from Met+ flies", "setting": "[2]; Met flies versus Met+ flies", "value": 10, "unit": "fold"}]}
{"smiles": "COC(=O)/C=C(\\C)CC[C@@H]1O[C@@]1(C)CC[C@H]1OC1(C)C", "note": "[JH bisepoxide]", "values": [{"measurement": "resistance to topical application", "setting": "[1]", "value": "resistance"}]}
{"smiles": "Clc1cc2c(cc1Cl)Oc1cc(Cl)c(Cl)cc1O2", "note": "[dioxin]", "values": [{"measurement": "transactivation of LacZ reporter gene by GAL4-AhR construct", "setting": "GAL4-AhR construct", "value": "enhanced transactivation"}, {"measurement": "expression of reporter gene linked to a glucocorticoid response element", "setting": "[3]", "value": "induced expression of a reporter gene"}]}
{"smiles": "CCOC(=O)NCCOc1ccc(Oc2ccccc2)cc1", "note": "[fenoxycarb]", "values": [{"measurement": "resistance to topical application", "setting": "[1]", "value": "resistance"}]}
{"smiles": "COC(C)(C)CCC[C@H](C)C/C=C/C(C)=C/C(=O)OC(C)C", "note": "[methoprene, [E,E]-1-methoxy-3,7,11-trimethyl-2,4-dodecadienoic acid 1-methylethyl ester]", "values": [{"measurement": "resistance to both the toxic and morphogenetic effects", "setting": "[1]; Met mutant versus wild-type flies", "value": "≤ 100", "unit": "fold"}, {"measurement": "resistance to both the toxic and morphogenetic effects conferred by Met^A3 and Met^K17 alleles", "setting": "[1]; P-element alleles Met^A3 and Met^K17", "value": "conferred resistance"}, {"measurement": "toxicity to Drosophila", "setting": "Drosophila", "value": "high toxicity"}, {"measurement": "level of methoprene resistance compared with Met^3", "setting": "[4]; Met^3 transformants with fragments St-X and K-H", "value": "undiminished"}, {"measurement": "methoprene resistance after transformation", "setting": "[4]; Met^3 transformed with the 6.234 Kb St-H fragment", "value": "resistance was lost"}]}
{"smiles": "CC(COc1ccc(Oc2ccccc2)cc1)Oc1ccccn1", "note": "(stereo not shown) [pyriproxyfen]", "values": [{"measurement": "resistance to topical application", "setting": "[1]", "value": "resistance"}]}
